Data: patent US20240114940A1, “SACCHARIDE COMPOSITIONS HAVING SUCROSE-LIKE CHARACTERISTICS AND RELATED METHODS” (priority 2021, published 2024)

Key:
Format in all cases: physicochemical
[1] = Furfural and 5-hydroxymethylfurfural in headspace of heated solutions; conditions: solutions in water
Experimental: The solutions were rapidly heated to set temperatures and held at temperature for 5 min. After 5 min, the samples were rapidly cooled. […] (FIG. 18). The data is also plotted in FIG. 18 until 180° C.

[2] = Breakdown products by GCMS without an amino acid present; conditions: pH 7, 160° C., 10 min
Experimental: (§1) Controls were prepared addition of 1 mL of pH 7 buffer to the amino acids. The samples were rapidly heated to 160° C. and held at this temperature for 10 min. Samples were rapidly cooled afterwards, and absorbance at 500 nm was measured for each reaction mixture. Volatiles were analysed using gas chromatography mass spectrometry (GCMS) analysis. An Agilent Technologies 5975B Inert XL MSD gas chromatography, single quadruple mass spectrometer was used for analysis of volatiles. Samples were added to separate GCMS headspace vials and weighed. 0.03 g of 0.01% 3-heptanone in water was added and the vial was sealed for GCMS solid phase micro extraction (SPME) analysis. Samples were analysed in a randomized order. Samples were incubated and agitated at 250 RPM, at 60° C. for 15 min prior to SPME analysis of volatiles. The SPME fibre (50/30 DVB/CAR/PDMS, 23 Ga) extracted for 10 min, then thermally desorbed at 250° C. for 5 min. A 30 m×0.25 mm×0.25 μm HP-5MS column was used (Phenomenex, UK). Oven temperature settings: 31° C.-5 min, 5° C./min to 150° C., 30° C./min to 240° C. Inlet settings: 250° C., pressure 10.4 psi, flow 11.2 mL/min, split ratio 7:1. MS operated in full scan mode from 40 to 400 m/z with a scan time of 0.2s. The peak area of the aroma compounds was compared to the peak of the internal standard 3-heptanone and corrected for the weight of the sample.
(§2) The concentration of the different classes of Maillard reaction breakdown products is presented in Tables 9B-E. The same data as Tables 9B-E is also presented in FIG. 27. Concentrations are in parts per billion of the difference non-enzymatic breakdown products for the different compositions at 160° C. analysed by GCMS.

[3] = Breakdown products by GCMS after Maillard reaction in the presence of Histidine; conditions: 160° C.
Experimental: as §1, §2

[4] = Non-enzymatic breakdown products in confectionery mixtures (milk, butter, saccharides); conditions: final confectionery mixture

temperature at which HMF concentration increased [1]: 180 °C
Concentration of 2-Butanone [2]: 178.52 ppb
Concentration of 2-Propanone, 1-hydroxy- [2]: 96.48 ppb
Concentration of 5-methyl furfural [2]: 0 ppb
Concentration of Diacetyl (2,3-Butanedione) [2]: 245.45 ppb
Concentration of Furan, 2-methyl- [2]: 0 ppb
Concentration of Furfural [2]: 1.42 ppb
2-Butanone concentration ([3]; Carbonyls/ketones): 1.44 ppb
2-Propanone, 1-hydroxy- concentration ([3]; Carbonyls/ketones): 14.57 ppb
Diacetyl (2,3-Butanedione) concentration ([3]; Carbonyls/ketones): 1.62 ppb
Furan, 2-methyl- concentration ([3]; Furans): 0 ppb
Furfural concentration ([3]; Furans): 0.03 ppb
Pyrazine, 2,5-diethyl- concentration ([3]; Pyrazines): 0.48 ppb
Pyrazine, 2,5-dimethyl- concentration ([3]; Pyrazines): 175.23 ppb
Pyrazine, 2-ethyl-5-methyl- concentration ([3]; Pyrazines): 34.95 ppb
Pyrazine, ethyl- concentration ([3]; Pyrazines): 0.14 ppb
Pyrazine, methyl- concentration ([3]; Pyrazines): 0 ppb
Concentration of 3-methyl-3-(2-oxopropylamino)butan-2-one [4]: 0.00 ppb
Concentration of Acetic acid [4]: 0.01 ppb
Concentration of Benzaldehyde [4]: 0.13 ppb
Concentration of Furfural [4]: 0.01 ppb
Concentration of Isovaleraldehyde [4]: 0.17 ppb
Structure (SMILES): OC[C@H]1O[C@@](CO)(O[C@H]2O[C@H](CO)[C@@H](O)[C@H](O)[C@H]2O)[C@@H](O)[C@@H]1O [Sucrose]
